Source: PubChem BioAssay (NCI)
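Compound exposure: 48 hours, 5 concentrations, 96-well plates. GI50 marks 50% less growth. Definition used: TGI = concentration required for complete inhibition of growth.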

Key:
Experiment in all cases: DTP human tumour cell line panel, 48 h
786-0 renal = tested on: 786-0 renal
HOP-62 NSCLC = tested on: HOP-62 NSCLC
LOX IMVI melanoma = tested on: LOX IMVI melanoma
HCT-116 colon = tested on: HCT-116 colon
SK-MEL-28 melanoma = tested on: SK-MEL-28 melanoma
M14 melanoma = tested on: M14 melanoma
HS 578T breast = tested on: HS 578T breast
NCI-H460 lung = tested on: NCI-H460 lung
U251 CNS = tested on: U251 CNS
NCI-H522 lung = tested on: NCI-H522 lung

Structure (SMILES)	GI50 (786-0 renal)	TGI (786-0 renal)	GI50 (HOP-62 NSCLC)	TGI (HOP-62 NSCLC)	GI50 (LOX IMVI melanoma)	TGI (LOX IMVI melanoma)	GI50 (HCT-116 colon)	TGI (HCT-116 colon)	GI50 (SK-MEL-28 melanoma)	TGI (SK-MEL-28 melanoma)	GI50 (M14 melanoma)	TGI (M14 melanoma)	GI50 (HS 578T breast)	TGI (HS 578T breast)	GI50 (NCI-H460 lung)	TGI (NCI-H460 lung)	GI50 (U251 CNS)	TGI (U251 CNS)	GI50 (NCI-H522 lung)	TGI (NCI-H522 lung)
NS(=O)(=O)c1ccc(N=Nc2c(O)[nH]c3cccc(CCc4ccncc4)c23)cc1	> 25 µM	> 25 µM	> 25 µM	> 25 µM	> 25 µM	> 25 µM	> 25 µM	> 25 µM	> 25 µM	> 25 µM	> 25 µM	> 25 µM	> 25 µM	> 25 µM	> 25 µM	> 25 µM	> 25 µM	> 25 µM	> 25 µM	> 25 µM
CCN1C2=C(SC(=S)C1=C1SC(C(=O)c3ccccc3)=C(C(=O)c3ccccc3)S1)SC(=Nc1ccccc1)C2=O	1.53 µM	> 68 µM	21.7 µM	76.2 µM	1.43 µM	7.06 µM	2.66 µM	38.7 µM	26.4 µM	> 100 µM	> 100 µM	> 100 µM	2.58 µM	72.9 µM	27.8 µM	> 100 µM	3.39 µM	> 60.5 µM	5.43 µM	> 20.8 µM
CC(C)c1ccc2c(c1)CCC1C(C)(CN)CCCC21C (stereo not given)		2.89 µM		3.14 µM		2.99 µM		2.93 µM		3.11 µM		3.1 µM		3.57 µM		2.6 µM		2.83 µM		3.36 µM
